Measurements reported in PubChem BioAssay (NCI).
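In this assay, cells in 96-well plates receive the compound at five concentrations for 48 hours. Endpoints are linearly interpolated between the surrounding concentrations. Here, GI50 denotes the concentration required for 50% inhibition of growth. Definition used: TGI = concentration required for complete inhibition of growth.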

Columns and labels:
Assay in all cases: NCI anticancer screen, dose series, 48 h
BT-549 breast = test system: BT-549 breast
HS 578T breast = test system: HS 578T breast
MCF7 breast = test system: MCF7 breast
MDA-MB-231 breast = test system: MDA-MB-231 breast
MDA-MB-435 = test system: MDA-MB-435
MDA-N = test system: MDA-N
RXF 393 renal = test system: RXF 393 renal
T-47D breast = test system: T-47D breast
DLD-1 colon = test system: DLD-1 colon
DMS 114 small cell lung = test system: DMS 114 small cell lung
LXFL 529 NSCLC = test system: LXFL 529 NSCLC
SNB-78 CNS = test system: SNB-78 CNS

Nc1cccc2cc(S(=O)(=O)Nc3ccc(C(=O)O)cc3)ccc12
TGI (BT-549 breast): > 100 µM
TGI (HS 578T breast): > 100 µM
TGI (MCF7 breast): > 100 µM
TGI (MDA-MB-231 breast): > 100 µM
TGI (MDA-MB-435): > 100 µM
TGI (MDA-N): > 100 µM
TGI (RXF 393 renal): > 100 µM
TGI (T-47D breast): > 100 µM

CC[n+]1c(/C=C/c2ccc(N(CCCl)CCCl)cc2)ccc2cc(Br)ccc21
TGI (DLD-1 colon): 16.1 µM
TGI (DMS 114 small cell lung): 15.2 µM
TGI (LXFL 529 NSCLC): 1.99 µM
GI50 (RXF 393 renal): 588 µM
TGI (SNB-78 CNS): 15.4 µM

CCN(CC)CCSc1nc2c([N+](=O)[O-])cccc2[nH]1
TGI (DMS 114 small cell lung): > 100 µM
TGI (LXFL 529 NSCLC): > 100 µM
TGI (RXF 393 renal): > 100 µM
TGI (SNB-78 CNS): > 100 µM

CNC1=C(C)C(=O)C2=C(C1=O)C(COC(N)=O)C1(OC)C3NC3CN21 (configuration not stated)
TGI (HS 578T breast): 30.5 µM
TGI (MCF7 breast): 10.6 µM
TGI (MDA-MB-435): 5.67 µM
TGI (MDA-N): 5.65 µM
TGI (T-47D breast): 18.1 µM

N=C1SCCS1
TGI (DLD-1 colon): > 100 µM
TGI (DMS 114 small cell lung): > 100 µM
TGI (LXFL 529 NSCLC): > 100 µM
TGI (SNB-78 CNS): > 100 µM

O=C(Nc1ccc(-n2cc(-c3ccncc3)c(-c3ccc(O)c(Cl)c3)n2)cc1)c1ccc(Cl)c(Cl)c1
GI50 (HS 578T breast): 0.791 µM
TGI (HS 578T breast): > 32.5 µM
GI50 (MCF7 breast): 2.04 µM
TGI (MCF7 breast): > 32.5 µM
GI50 (MDA-MB-231 breast): 0.51 µM
TGI (MDA-MB-231 breast): 1.11 µM
GI50 (MDA-MB-435): 2.06 µM
TGI (MDA-MB-435): > 32.5 µM
GI50 (RXF 393 renal): 0.49 µM
TGI (RXF 393 renal): 1.1 µM
GI50 (T-47D breast): 2.37 µM
TGI (T-47D breast): > 32.5 µM

NC(N)=NCCCS(=O)(=O)Nc1ccc(Nc2c3ccccc3nc3cc([N+](=O)[O-])ccc23)cc1
TGI (BT-549 breast): 94.4 µM
TGI (DLD-1 colon): > 93.4 µM
TGI (DMS 114 small cell lung): 28.8 µM
TGI (HS 578T breast): 50.9 µM
TGI (LXFL 529 NSCLC): 29.9 µM
TGI (MCF7 breast): 87.7 µM
TGI (MDA-MB-231 breast): 66.5 µM
TGI (MDA-MB-435): > 100 µM
TGI (MDA-N): 81.1 µM
TGI (RXF 393 renal): 67.2 µM
TGI (SNB-78 CNS): > 63.5 µM
TGI (T-47D breast): 11.4 µM

Cc1ccc(CCCC(=O)O)cc1C
TGI (BT-549 breast): > 100 µM
TGI (MDA-MB-231 breast): > 100 µM
TGI (MDA-MB-435): > 100 µM
TGI (MDA-N): > 100 µM
TGI (RXF 393 renal): > 100 µM

N=C(N)c1ccc(-c2ccc(-c3ccccc3)o2)cc1
GI50 (BT-549 breast): 13.1 µM
TGI (BT-549 breast): 39.9 µM
GI50 (HS 578T breast): 2.58 µM
TGI (HS 578T breast): 7.04 µM
GI50 (MDA-MB-231 breast): 1.93 µM
TGI (MDA-MB-231 breast): 4.08 µM
GI50 (MDA-MB-435): 1.66 µM
TGI (MDA-MB-435): 3.03 µM

O=C(c1no[n+]([O-])c1C(=O)c1csc2ccccc12)c1csc2ccccc12
TGI (BT-549 breast): 19.3 µM
TGI (HS 578T breast): > 57.3 µM
TGI (MCF7 breast): 25 µM
TGI (MDA-MB-231 breast): 18.4 µM
TGI (MDA-MB-435): 21.5 µM
TGI (MDA-N): 21.6 µM
TGI (RXF 393 renal): 19.4 µM
TGI (T-47D breast): 13.7 µM

CC(C)c1cccc(C(C)C)c1NC(=S)Nc1ccccc1
TGI (DLD-1 colon): > 100 µM
TGI (DMS 114 small cell lung): > 100 µM
TGI (LXFL 529 NSCLC): > 100 µM
TGI (RXF 393 renal): > 100 µM
TGI (SNB-78 CNS): > 100 µM

N/C(=N/O)c1cn(C2OC(CO)C(O)C2O)c2ncnc(NO)c12 (configuration not stated)
TGI (BT-549 breast): > 100 µM
TGI (HS 578T breast): > 100 µM
TGI (MCF7 breast): 23.2 µM
TGI (MDA-MB-231 breast): 5.05 µM
TGI (MDA-MB-435): 0.805 µM
TGI (MDA-N): > 100 µM
TGI (RXF 393 renal): 14.7 µM
TGI (T-47D breast): > 35.3 µM

CSc1nc(NC2OC(CO)C(O)C(O)C2O)c(N)c(=O)n1C (configuration not stated)
TGI (DLD-1 colon): > 100 µM
TGI (DMS 114 small cell lung): > 100 µM
TGI (MCF7 breast): > 100 µM
TGI (RXF 393 renal): > 100 µM
TGI (SNB-78 CNS): > 100 µM

COc1cccc(/C=N/[N-]C(N)=O)c1[O-].[OH3+].[Zn+2]
TGI (RXF 393 renal): > 100 µM

NC(=O)OCc1c(O)c2c(c(O)c1COC(N)=O)C(=O)C=CC2=O
TGI (DLD-1 colon): > 100 µM
TGI (DMS 114 small cell lung): > 100 µM
TGI (LXFL 529 NSCLC): > 100 µM
TGI (SNB-78 CNS): > 100 µM

CCCCCCCCCCCCCCCc1ccc(C(=O)C[n+]2ccccc2)cc1
GI50 (BT-549 breast): 2.88 µM
TGI (BT-549 breast): 12.3 µM
GI50 (HS 578T breast): 1.75 µM
TGI (HS 578T breast): 4.25 µM
GI50 (MDA-MB-231 breast): 0.886 µM
TGI (MDA-MB-231 breast): 2.23 µM
GI50 (T-47D breast): 1.38 µM
TGI (T-47D breast): 3.77 µM

COc1ccc(C2C(Cl)C(=O)N2NC(=O)c2ccc(NC(C)=O)cc2)cc1OC (configuration not stated)
TGI (LXFL 529 NSCLC): > 100 µM

CC(C)=CCC/C(C)=C/CC/C(C)=C/C(O)c1ccccc1 (configuration not stated)
TGI (DLD-1 colon): 34.4 µM
TGI (DMS 114 small cell lung): 39.4 µM
TGI (LXFL 529 NSCLC): 31.8 µM
TGI (SNB-78 CNS): 68 µM
